{
  "source": "paper PMC12891993",
  "about": "“Bio-orthogonal chemistry-based strategy to Turn-OFF CRISPR-Cas9 activity in solution and live cells” (NAR Molecular Medicine, 2026)",
  "assay_type_in_all_cases": "cell-based",
  "key": {"HEK293 cells": {"system": "HEK293 cells", "experiment": "Assessment of cell permeability of TCO-modified CRISPR suppressors with OG-Tz fluorescent probe", "details": "suppressor 30 μM 3 h, then OG-Tz 50 μM 2 h; for cellular fluorescence in the Oregon Green channel: confocal microscopy; for cell permeability: microscopy, confirmed by flow cytometry", "description": "The studies were carried out using the previously reported OG-Tz fluorescent probe. The chemical structure of OG-Tz is shown in Supplementary Fig. S7. OG-Tz was synthesized using the procedure reported by Devaraj and co-workers. The HEK293 cells were cultured in DMEM, containing 10% FBS and 1X Penicillin/Streptomycin, at 37°C, 5% CO2, and 95% humidity. The cells were seeded at a concentration of 1 × 10^5 cells per well in a six-well plate 24 h prior to the experiment. The cells were treated with the TCO-modified CRISPR suppressors (30 μM) for 3 h. Then, the media was replaced, and the cells were treated with OG-Tz (50 μM) for 2h. Afterwards, the cells were treated with trypsin for 5 min, collected by centrifugation at 1000 RPM, and suspended in PBS (1 mL). GFP expression was analyzed by flow cytometry. Data from 10^6 cells were acquired using a FACS Aria III cell sorter equipped with a 488 nm/blue coherent sapphire solid-state laser, 20 mW (BD Biosciences, San Jose, CA, USA). Data analyses were carried out using FlowJo software (Ashland, OR, USA), according to the manufacturer’s instructions. Parameters, such as MFI and the percentages of specific populations, were quantified by histogram analysis.\nHEK293 cells were grown to ∼70% confluence in 35 mm MatTek glass bottom dishes in DMEM supplemented with 10% […], penicillin, and streptomycin. The cells were treated with AAA-PNA-TCO, TTT-PNA-TCO, TCO-CPP-RRWQW, or TCO-CPP-RLRWR (30 μM) for 3 h. Afterwards, the cells were treated with OG-Tz (50 μM) for 2 h. Hoechst 33 258 dye was used for nuclear staining. Cellular fluorescence was analyzed using confocal microscopy. Microscopy experiments were carried out using a Zeiss LSM980 confocal microscope."}, "[1]": {"system": "GFP gene in GFP-expressing HEK293 cells", "experiment": "CRISPR-Cas9 experiments in GFP-expressing HEK293 cells, flow cytometry", "details": "then suppressor 10 μM 24 h, 48 h growth, duplicate; for inactivation of sgRNA3-(U4Tz1) inside the cells (MFI of GFP): Cas9 mRNA + sgRNA3-(U4Tz1) 48 h; for inactivation of sgRNA3-(U4Tz2) inside the cells (MFI of GFP): Cas9 mRNA + sgRNA3-(U4Tz2) 48 h", "description": "CRISPR-Cas9 experiments were carried out following the procedure reported by Yin et al. The GFP-expressing HEK293 cells were purchased from GenTarget (cat.# SC001) and cultured in DMEM, containing 10% FBS and 1X Penicillin/Streptomycin, at 37°C, 5% CO2, and 95% humidity. The cells were seeded at a concentration of 1 × 10^5 cells per well in a six-well plate 24 h prior to the experiment. The cells were transfected with Cas9 mRNA (500 ng, Thermo Fisher Scientific), GFP-targeting sgRNAs (30 nM) using lipofectamine (1.5 μL) (Invitrogen™ LMRNA003) for 72 h in Opti-MEM reduced serum media. After 72 h, Opti-MEM was replaced with fresh DMEM, and the cells were grown for an additional 48 h. The cells were treated with trypsin for 5 min, collected by centrifugation at 1000 RPM, and suspended in PBS (1 mL). GFP expression was analyzed by flow cytometry. Data from 10^6 cells were acquired using a FACS Aria III cell sorter equipped with a 488 nm/blue coherent sapphire solid-state laser, 20 mW (BD Biosciences, San Jose, CA, USA). Data analyses were carried out using FlowJo software (Ashland, OR, USA), according to the manufacturer’s instructions. Parameters, such as MFI and the percentages of specific populations, were quantified by histogram analysis.\nAbility of TCO-modified CRISPR suppressors to control nuclease activity was examined as follows: GFP-expressing HEK239 cells were co-transfected with Cas9 mRNA (500 ng, Thermo Fisher Scientific), GFP-targeting sgRNAs (30 nM) using lipofectamine (1.5 μL) (Invitrogen™ LMRNA003) for 48 h. Then, AAA-PNA-TCO, TTT-PNA-TCO, TCO-CPP-RRWQW, and TCO-CPP-RLRWR (10 μM) were added to the media. After 24 h of treatment with the TCO-modified CRISPR suppressors, the media were replaced with fresh DMEM, and the cells were allowed to grow for an additional 48 h. The cells were treated with trypsin for 5 min, collected by centrifugation at 1000 RPM, and suspended in PBS (1 mL). GFP expression was analyzed by flow cytometry. Data from 10^6 cells were acquired using a FACS Aria III cell sorter equipped with a 488 nm/blue coherent sapphire solid-state laser, 20 mW (BD Biosciences, San Jose, CA, USA). Data analyses were carried out using FlowJo software (Ashland, OR, USA), according to the manufacturer’s instructions. Parameters, such as MFI and the percentages of specific populations, were quantified by histogram analysis."}, "VEGFA in HEK293T cells": {"system": "VEGFA in HEK293T cells", "experiment": "Western blot analysis of CRISPR-Cas9 experiments targeting VEGFA", "details": "Cas9 mRNA + sgRNA4-(U4Tz1) or sgRNA4-(U4Tz2), suppressor 10 μM added after 48 h of transfection", "description": "Total protein lysate was harvested in RIPA buffer, and proteins separated by 10% SDS-PAGE were transferred to a PVDF membrane by using High MW protocol on Biorad Turbo wet transfer. Following transfer, membranes were blocked in 5% milk in PBST for 1 h at room temperature, washed three times in PBS with 0.1% (w/v) Tween 20 (PBS/T) for 10 min each and placed in primary antibody overnight at 4 °C. Primary antibody was rabbit VEGFA polyclonal antibody (1:2000 dilution, Cat.# 19003–1-AP, Proteintech) and α-tubulin monoclonal antibody (1:20 000 dilution, Cat.# 666031–1-Ig, Proteintech) in 5% BSA in PBS/T. Following overnight incubation, membranes were washed three times in PBS/T for 10 min each. Then membranes were incubated in a 1:10 000 dilution of goat anti-rabbit secondary (Jackson), goat-anti-mouse secondary in 5% milk, and PBS/T. Membranes were washed a final 3 times in PBS/T for 10 min each prior to being imaged on the BioRad ChemiDoc by using Thermo Scientific SuperSignal West Pico PLUS Chemiluminescent Substrate (BioRad, Cat.# 34 577).\nTo assess the new constructs, HEK239T cells were co-transfected with the unmodified sgRNA4, sgRNA4-(U4Tz1), or sgRNA4-(U4Tz2) and commercially available mRNA that encodes the Cas9 gene for 72 h. […] VEGFA expression was once again analyzed by Western blot."}},
  "note": "Residues, ends and D or L forms follow the SMILES beside them. *: point of attachment. X1 = O=C(COC1CC/C=C/CCC1)*",
  "data": [
    {"smiles": "N=C(N)NCCC[C@H](NC(=O)COC1CC/C=C/CCC1)C(=O)N[C@@H](CCCNC(=N)N)C(=O)N[C@@H](Cc1c[nH]c2ccccc12)C(=O)N[C@@H](CCC(N)=O)C(=O)N[C@@H](Cc1c[nH]c2ccccc12)C(=O)O", "note": "(stereo partly shown) [TCO-CPP-RRWQW] (X1-RRWQW-OH)", "values": [
      {"measurement": "cellular fluorescence in the Oregon Green channel", "setting": "HEK293 cells", "value": "strongest fluorescence"},
      {"measurement": "cell permeability", "setting": "HEK293 cells", "value": "good cell permeability"},
      {"measurement": "inactivation of sgRNA3-(U4Tz1) inside the cells (MFI of GFP)", "setting": "[1]", "value": "able to inactivate"},
      {"measurement": "inactivation of sgRNA3-(U4Tz2) inside the cells (MFI of GFP)", "setting": "[1]", "value": "able to inactivate"},
      {"measurement": "VEGFA expression after addition of suppressor", "setting": "VEGFA in HEK293T cells", "value": "higher VEGFA expression"}
    ]},
    {"smiles": "CC(C)C[C@H](NC(=O)[C@H](CCCNC(=N)N)NC(=O)COC1CC/C=C/CCC1)C(=O)N[C@@H](CCCNC(=N)N)C(=O)N[C@@H](Cc1c[nH]c2ccccc12)C(=O)N[C@@H](CCCNC(=N)N)C(=O)O", "note": "(stereo partly shown) [TCO-CPP-RLRWR] (X1-RLRWR-OH)", "values": [
      {"measurement": "cellular fluorescence in the Oregon Green channel", "setting": "HEK293 cells", "value": "strongest fluorescence"},
      {"measurement": "cell permeability", "setting": "HEK293 cells", "value": "good cell permeability"},
      {"measurement": "inactivation of sgRNA3-(U4Tz1) inside the cells (MFI of GFP)", "setting": "[1]", "value": "Analogous results"},
      {"measurement": "inactivation of sgRNA3-(U4Tz2) inside the cells (MFI of GFP)", "setting": "[1]", "value": "Analogous results"},
      {"measurement": "VEGFA expression after addition of suppressor", "setting": "VEGFA in HEK293T cells", "value": "higher VEGFA expression"}
    ]}
  ]
}
